Source: patent US20260042753A1 (Merck Patent GmbH, priority 2019, published 2026)

Legend:
[1] = biological target: mutant cKIT (560-576 and V654A) in GIST430/654 cell line (Homo sapiens (Human), UniProt P10721, DEL560-576/V654A); assay: Cellular testing of cKIT mutant inhibitors: phospho-Y307-cKIT Luminex assay in GIST430/654 cells; format: cell-based; conditions: Table 1; cKIT autophosphorylation, compounds 45 min; read-out: GIST 430/654 IC50
How it was run: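 Autophosphorylation of mutant cKIT at Y307 was quantified by a Luminex bead sandwich assay (total-cKIT capture, phosphospecific detection) after 45 min compound exposure in GIST430/654 cells, cultured in medium containing 100 nM imatinib. Signals were normalised to solvent (0.3% DMSO) controls and dose-response curves fitted for IC50.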

[2] = biological target: c-Kit(V654A) (Homo sapiens, UniProt P10721, V654A); assay: c-Kit(V654A) assay; format: biochemical; conditions: Table 1; 200 μM ATP
How it was run: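 Radiometric filter-binding read-out: after 3% phosphoric acid stop, peptide-incorporated 33P on filtermat scintillation-counted. Enzyme: human c-Kit V654A, residues 544–end, N-terminal GST fusion.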

mutant cKIT (560-576 and V654A) in GIST430/654 cell line, sequence (P10721 other isoform, or with tags, fused parts or gaps V654A/del 1-25/del 560-576 limits assumed): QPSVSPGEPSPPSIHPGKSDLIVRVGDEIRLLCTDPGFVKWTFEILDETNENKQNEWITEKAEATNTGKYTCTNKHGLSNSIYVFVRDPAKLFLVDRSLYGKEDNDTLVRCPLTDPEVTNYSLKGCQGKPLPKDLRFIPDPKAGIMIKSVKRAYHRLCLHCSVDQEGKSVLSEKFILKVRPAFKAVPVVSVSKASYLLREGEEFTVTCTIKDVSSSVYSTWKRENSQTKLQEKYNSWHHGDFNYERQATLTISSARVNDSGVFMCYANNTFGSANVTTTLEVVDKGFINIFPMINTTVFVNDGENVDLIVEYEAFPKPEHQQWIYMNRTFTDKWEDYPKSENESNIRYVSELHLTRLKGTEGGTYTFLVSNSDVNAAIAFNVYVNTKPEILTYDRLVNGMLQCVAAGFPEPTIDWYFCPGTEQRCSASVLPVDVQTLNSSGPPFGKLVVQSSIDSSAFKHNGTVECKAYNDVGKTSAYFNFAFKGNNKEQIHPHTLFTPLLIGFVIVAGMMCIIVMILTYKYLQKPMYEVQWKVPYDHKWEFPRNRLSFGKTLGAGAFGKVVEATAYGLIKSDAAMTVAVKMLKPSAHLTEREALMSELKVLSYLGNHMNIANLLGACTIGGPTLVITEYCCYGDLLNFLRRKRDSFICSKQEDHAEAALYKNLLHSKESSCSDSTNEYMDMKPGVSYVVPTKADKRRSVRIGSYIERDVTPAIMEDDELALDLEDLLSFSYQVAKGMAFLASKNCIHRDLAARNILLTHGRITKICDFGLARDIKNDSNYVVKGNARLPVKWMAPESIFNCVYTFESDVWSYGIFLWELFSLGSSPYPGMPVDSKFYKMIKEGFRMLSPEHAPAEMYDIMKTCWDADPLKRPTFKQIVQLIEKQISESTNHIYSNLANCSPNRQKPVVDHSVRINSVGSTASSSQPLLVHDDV

Structure (SMILES) | IC50 [1] | IC50 [2]
COCCOc1cc2[nH]nc(-c3cc(-c4ccc(C(=O)N5CC(N6CCN(C)CC6)C5)cc4)no3)c2cc1F [A102, 5-fluoro-6-(2-methoxyethoxy)-3-(3-{4-[3-(4-methylpiperazin-1-yl)azetidine-1-carbonyl]phenyl}-1,2-oxazol-5-yl)-1H-indazole] | 160 nM | 1.3 nM
COCCOc1cc2[nH]nc(-c3cc(-c4ccc(C(=O)N5CC(N6CCC(O)CC6)C5)cc4)no3)c2cc1F [A103, 1-[1-(4-{5-[5-fluoro-6-(2-methoxyethoxy)-1H-indazol-3-yl]-1,2-oxazol-3-yl}benzoyl)azetidin-3-yl]piperidin-4-ol] | 140 nM | 0.96 nM
COCCOc1cc2[nH]nc(-c3cc(-c4ccc(C(=O)N5CCOC[C@H]5CO)cc4)no3)c2cc1F [A105, [(3R)-4-(4-{5-[5-fluoro-6-(2-methoxyethoxy)-1H-indazol-3-yl]-1,2-oxazol-3-yl}benzoyl)morpholin-3-yl]methanol] | 140 nM | 1.2 nM
COCCOc1cc2[nH]nc(-c3cc(-c4ccc(C(=O)N5CCOC[C@@H]5CO)cc4)no3)c2cc1F [A106, [(3S)-4-(4-{5-[5-fluoro-6-(2-methoxyethoxy)-1H-indazol-3-yl]-1,2-oxazol-3-yl}benzoyl)morpholin-3-yl]methanol] | 77 nM | 0.7 nM
COCCOc1cc2[nH]nc(-c3cc(-c4ccc(C(=O)N5C6CC5CS(=O)(=O)C6)cc4)no3)c2cc1F [A108, 6-(4-{5-[5-fluoro-6-(2-methoxyethoxy)-1H-indazol-3-yl]-1,2-oxazol-3-yl}benzoyl)-3lambda6-thia-6-azabicyclo[3.1.1]heptane-3,3-dione] | 56 nM | 0.81 nM
COCCOc1cc2[nH]nc(-c3cc(-c4ccc(C(=O)N5CCOC[C@@H]5COC)cc4)no3)c2cc1F [A110, 5-fluoro-6-(2-methoxyethoxy)-3-(3-{4-[(3S)-3-(methoxymethyl)morpholine-4-carbonyl]phenyl}-1,2-oxazol-5-yl)-1H-indazole] | 50 nM | 0.76 nM
COCCOc1cc2[nH]nc(-c3cc(-c4ccc(C(=O)N5CCOC[C@H]5COC)cc4)no3)c2cc1F [A111, 5-fluoro-6-(2-methoxyethoxy)-3-(3-{4-[(3R)-3-(methoxymethyl)morpholine-4-carbonyl]phenyl}-1,2-oxazol-5-yl)-1H-indazole] | 62 nM | 1.2 nM
COCCOc1cc2[nH]nc(-c3cc(-c4ccc(C(=O)N5CCC56COC6)cc4)no3)c2cc1F [A112, 5-fluoro-6-(2-methoxyethoxy)-3-[3-(4-{6-oxa-1-azaspiro[3.3]heptane-1-carbonyl}phenyl)-1,2-oxazol-5-yl]-1H-indazole] | 32 nM | 1.3 nM
COCCOc1cc2[nH]nc(-c3cc(-c4ccc(C(=O)N5CCN(C)CC5)cc4)on3)c2cc1F [A113, (4-{3-[5-fluoro-6-(2-methoxy-ethoxy)-1H-indazol-3-yl]-isoxazol-5-yl}-phenyl)-(4-methyl-piperazin-1-yl)-methanone] | 82 nM | 2.6 nM
COCCOc1cc2[nH]nc(-c3cc(-c4ccc(C(=O)N5CCOC[C@H]5C)cc4)no3)c2cc1F [A114, 5-fluoro-6-(2-methoxyethoxy)-3-(3-{4-[(3R)-3-methylmorpholine-4-carbonyl]phenyl}-1,2-oxazol-5-yl)-1H-indazole] | 56 nM | 0.91 nM
COCCOc1cc2[nH]nc(-c3cc(-c4ccc(C(=O)N5CCOC[C@@H]5C)cc4)no3)c2cc1F [A115, 5-fluoro-6-(2-methoxyethoxy)-3-(3-{4-[(3S)-3-methylmorpholine-4-carbonyl]phenyl}-1,2-oxazol-5-yl)-1H-indazole] | 45 nM | 0.83 nM
COc1cc2[nH]nc(-c3cc(-c4ccc(C(=O)N5CCC[C@H]5CS(C)(=O)=O)cc4)no3)c2cc1F [A117, 5-fluoro-3-(3-{4-[(2S)-2-(methanesulfonylmethyl)pyrrolidine-1-carbonyl]phenyl}-1,2-oxazol-5-yl)-6-methoxy-1H-indazole] | 100 nM | 3.6 nM
COCCOc1cc2[nH]nc(-c3cc(-c4ccc(C(=O)N5CCS(=O)(=O)CC5C)cc4)no3)c2cc1F (stereo not shown) [A121, 4-(4-{5-[5-fluoro-6-(2-methoxyethoxy)-1H-indazol-3-yl]-1,2-oxazol-3-yl}benzoyl)-3-methyl-1lambda6-thiomorpholine-1,1-dione] | 42 nM | 0.6 nM
COCCOc1cc2[nH]nc(-c3cc(-c4ccc(N5CCCN(C)CC5)cc4)no3)c2cc1F [A123, 5-fluoro-6-(2-methoxyethoxy)-3-{3-[4-(4-methyl-1,4-diazepan-1-yl)phenyl]-1,2-oxazol-5-yl}-1H-indazole] | 38 nM | 0.39 nM
COCCOc1cc2[nH]nc(-c3cc(-c4ccc(N5CC[S+]([O-])CC5)cc4)no3)c2cc1F [A127, 4-(4-{5-[5-fluoro-6-(2-methoxyethoxy)-1H-indazol-3-yl]-1,2-oxazol-3-yl}phenyl)-1lambda4-thiomorpholin-1-one] | 24 nM | 0.37 nM
COCCOc1cc2[nH]nc(-c3cc(-c4ccc(N5CCC(O)CC5)cc4)no3)c2cc1F [A128, 1-(4-{5-[5-fluoro-6-(2-methoxyethoxy)-1H-indazol-3-yl]-1,2-oxazol-3-yl}phenyl)piperidin-4-ol] | 100 nM | 0.79 nM

The next lines start with the values.

IC50 [1] | IC50 [2] | Structure (SMILES)
740 nM | 21 nM | COCCOc1cc2[nH]nc(-c3cc(-c4ccc(C(=O)N5CC(C#N)C5)nc4)no3)c2cc1F [A96, 1-(5-{5-[5-fluoro-6-(2-methoxy-ethoxy)-1H-indazol-3-yl]-isoxazol-3-yl}-pyridine-2-carbonyl)-azetidine-3-carbonitrile]
41 nM | 0.97 nM | COCCOc1cc2[nH]nc(-c3cc(-c4ccc(C(=O)N5CC[C@@H]5CO)cc4)no3)c2cc1F [A97, [(2R)-1-(4-{5-[5-fluoro-6-(2-methoxyethoxy)-1H-indazol-3-yl]-1,2-oxazol-3-yl}benzoyl)azetidin-2-yl]methanol]
860 nM | 15 nM | COCCOc1cc2[nH]nc(-c3cc(-c4ccc(C(=O)N5CC(F)C5)nc4)no3)c2cc1F [A98, (3-fluoro-azetidin-1-yl)-(5-{5-[5-fluoro-6-(2-methoxy-ethoxy)-1H-indazol-3-yl]-isoxazol-3-yl}-pyridin-2-yl)-methanone]
670 nM | 6.9 nM | COCCOc1cc2[nH]nc(-c3cc(-c4ccc(C(=O)N(C)C)nc4)no3)c2cc1F [A99, 5-{5-[5-fluoro-6-(2-methoxy-ethoxy)-1H-indazol-3-yl]-isoxazol-3-yl}-pyridine-2-carboxylic acid dimethylamide]
340 nM | 5.7 nM | COCCOc1cc2[nH]nc(-c3cc(-c4ccc(C(=O)N5CC[C@@H](F)C5)nc4)no3)c2cc1F [A100, 5-fluoro-3-(3-{6-[(3R)-3-fluoropyrrolidine-1-carbonyl]pyridin-3-yl}-1,2-oxazol-5-yl)-6-(2-methoxyethoxy)-1H-indazole]
160 nM | 0.94 nM | COCCOc1cc2[nH]nc(-c3cc(-c4ccc(C(=O)N5CC(N6CC(F)C6)C5)cc4)no3)c2cc1F [A101, 5-fluoro-3-[3-(4-{3-fluoro-[1,3′-biazetidine]-1′-carbonyl}phenyl)-1,2-oxazol-5-yl]-6-(2-methoxyethoxy)-1H-indazole]
58 nM | 0.79 nM | COCCOc1cc2[nH]nc(-c3cc(-c4ccc(C(=O)N5CCOCC5)cc4)no3)c2cc1F [A104, 5-fluoro-6-(2-methoxyethoxy)-3-{3-[4-(morpholine-4-carbonyl)phenyl]-1,2-oxazol-5-yl}-1H-indazole]
53 nM | 5.6 nM | COCCOc1cc2[nH]nc(-c3cc(-c4ccc(C(=O)N5CCC[C@H]5C(C)(C)O)nc4)no3)c2cc1F [A107, 2-[(2S)-1-(5-{5-[5-fluoro-6-(2-methoxyethoxy)-1H-indazol-3-yl]-1,2-oxazol-3-yl}pyridine-2-carbonyl)pyrrolidin-2-yl]propan-2-ol]
430 nM | 9.1 nM | COCCOc1cc2[nH]nc(-c3cc(-c4ccc(C(=O)N5CCC[C@@H]5C(C)(C)O)nc4)no3)c2cc1F [A109, (5-{5-[5-fluoro-6-(2-methoxy-ethoxy)-1H-indazol-3-yl]-isoxazol-3-yl}-pyridin-2-yl)-[(R)-2-(1-hydroxy-1-methyl-ethyl)-pyrrolidin-1-yl]-methanone]
120 nM | 4.1 nM | COCCOc1cc2[nH]nc(-c3cc(-c4ccc(C(=O)N5CCN(C)C(=O)C5)cc4)no3)c2cc1F [A116, 4-(4-{5-[5-fluoro-6-(2-methoxyethoxy)-1H-indazol-3-yl]-1,2-oxazol-3-yl}benzoyl)-1-methylpiperazin-2-one]
640 nM | 7.1 nM | COCCOc1cc2[nH]nc(-c3cc(-c4ccc(C(=O)N5CC[C@H]5C(C)(C)O)nc4)no3)c2cc1F [A118, (5-{5-[5-fluoro-6-(2-methoxy-ethoxy)-1H-indazol-3-yl]-isoxazol-3-yl}-pyridin-2-yl)-[(S)-2-(1-hydroxy-1-methyl-ethyl)-azetidin-1-yl]-methanone]
340 nM | 12 nM | COCCOc1cc2[nH]nc(-c3cc(-c4ccc(C(=O)N5CC[C@@H]5C(C)(C)O)nc4)no3)c2cc1F [A119, (5-{5-[5-fluoro-6-(2-methoxy-ethoxy)-1H-indazol-3-yl]-isoxazol-3-yl}-pyridin-2-yl)-[(R)-2-(1-hydroxy-1-methyl-ethyl)-azetidin-1-yl]-methanone]
24 nM | 0.64 nM | COCCOc1cc2[nH]nc(-c3cc(-c4ccc(C(=O)N5CC(c6ccncc6)C5)cc4)no3)c2cc1F [A120, 5-fluoro-6-(2-methoxyethoxy)-3-(3-{4-[3-(pyridin-4-yl)azetidine-1-carbonyl]phenyl}-1,2-oxazol-5-yl)-1H-indazole]
